Patent US20160044914A1, “BIOCIDE COMPOSITIONS, METHODS OF MANUFACTURE, AND METHODS OF USE” (SEGETIS, INC., priority 2013, published 2016)
Entries after “also recorded” stand apart in the source; their conditions may differ.

Columns and labels:
[1] = Approximate solubility of technical grade active ingredients in the adjuvant solvents (shaker, iterative approach); details: for solubility in the three solvents, in words: Solvents I, II and III taken together
Procedure: Solubility studies were conducted using three materials to determine their ability to dissolve various biocide active ingredients: Solvent I-formula 1(a); Solvent II-formula 1(b); and Solvent III-formula 3(a). Active ingredients were chosen from three classes of biocides and primarily reflected difficult to dissolve actives. The following biocides were evaluated.
The approximate solubility of each technical grade active ingredient was determined in each of the solvents.
All examples were conducted on a 100 gram or 50 gram scale. The Dimethoate, 2,4-D, mesotrione and halosulfuron examples were conducted at 50 gram scale. All other examples were conducted on a 100 gram scale.
An amount of solvent was weighed into a 4 ounce jar (or 2 oz). An amount of active ingredient was weighed and added to the solvent in the jar. The jar was capped tightly and placed on a New Brunswick Scientific model C1 platform shaker. The samples were shaken at the 75% setting for 1 hour. During the mixing and after 1 hour each sample was examined and completeness of solubility noted. Using an iterative approach, an approximate solubility for each active ingredient in each of the solvents was determined. Each sample was allowed to sit undisturbed for 1 hour after mixing to determine if any crystallization would occur in those samples which dissolved.

[2] = cited from earlier work
[3] = Solvent I (formula 1(a)), % solids by weight, shaken 1 hour, minimum concentration tested 2.5%
[4] = Solvent II (formula 1(b)), % solids by weight, shaken 1 hour, minimum concentration tested 2.5%
[5] = Solvent III (formula 3(a)), % solids by weight, shaken 1 hour, minimum concentration tested 2.5%

O=C(O)COc1ccc(Cl)cc1Cl [2,4-D]
solubility in the three solvents, in words [1]: did dissolve

COc1c(Cl)ccc(Cl)c1C(=O)O [Dicamba]
approximate solubility range in Solvent I [1, 3]: <10%
solubility in the three solvents, in words [1]: greatest solubility; also recorded: did dissolve

OC(Cn1cncn1)(c1ccc(F)cc1)c1ccccc1F (stereo not drawn) [Flutrifol]
approximate solubility range in Solvent I ([1]; 1 h): >2.5%; <5%
approximate solubility range in Solvent II ([1]; 1 h): >2.5%; <5%
approximate solubility range in Solvent III ([1]; 1 h): >5%; <20%

CS(=O)(=O)NC(=O)c1cc(Oc2ccc(C(F)(F)F)cc2Cl)ccc1[N+](=O)[O-] [Fomesafen]
approximate solubility range in Solvent I ([1]; 1 h): <2.5%
approximate solubility range in Solvent II ([1]; 1 h): >2.5%; <10%
approximate solubility range in Solvent III ([1]; 1 h): >5%; <10%

CC1(C)[C@H](C(=O)O[C@H](C#N)c2cccc(Oc3ccccc3)c2)[C@@H]1/C=C(\Cl)C(F)(F)F [Gamma cyhalothrin]
approximate solubility range in Solvent I [1, 3]: >80%
approximate solubility range in Solvent II [1, 4]: >80%
approximate solubility range in Solvent III [1, 5]: >80%
solubility in the three solvents, in words [1]: greatest solubility

O=C(O)CNCP(=O)(O)O [Glyphosate]
approximate solubility range in Solvent I [1, 3]: <2.5%
approximate solubility range in Solvent II [1, 4]: <2.5%
approximate solubility range in Solvent III [1, 5]: <2.5%
solubility in the three solvents, in words [1]: not very soluble
solubility in most solvents, including water ([2]; most solvents, including water): not soluble to any great extent

COc1cc(OC)nc(NC(=O)NS(=O)(=O)c2c(C(=O)O)c(Cl)nn2C)n1 [Halosulfuron]
approximate solubility range in Solvent I ([1]; 1 h): <2.5%
approximate solubility range in Solvent II ([1]; 1 h): <2.5%
approximate solubility range in Solvent III ([1]; 1 h): >2.5%; <5%

CS(=O)(=O)c1ccc(C(=O)C2C(=O)CCCC2=O)c([N+](=O)[O-])c1 [Mesotrione]
approximate solubility range in Solvent I [1, 3]: <2.5%
approximate solubility range in Solvent II [1, 4]: <2.5%
solubility in Solvent III, in words ([1]; Solvent III): soluble
solubility in acetonitrile and acetone ([2]; acetonitrile and acetone): limited solubility

COCC(=O)N(c1c(C)cccc1C)C(C)C(=O)OC (stereo not drawn) [Metalaxyl]
solubility in the three solvents, in words [1]: greatest solubility

CCOC(=O)CCC(C)=O [Solvent III]
solvating properties compared among the three solvents ([1]; in all but one active ingredient, for those active ingredients which were soluble): best solvating properties
